Test results: US20230129359A1, “MUSCARINIC RECEPTOR 4 ANTAGONISTS AND METHODS OF USE” (Neurocrine Biosciences, Inc., priority 2020, published 2023)

target: T1, human M4 receptor (Homo sapiens, UniProt P08173); assay: Radioligand ([3H]N-methylscopolamine) binding assay, membranes from CHO cells expressing human M4 receptor; conditions: Ki against human M4 receptor; membranes from CHO cells; tritiated N-methylscopolamine 1.5 nM; read-out: K
T1 construct: expressed in transfected cells; host or cells: CHO cells
T1 sequence (P08173 1-479): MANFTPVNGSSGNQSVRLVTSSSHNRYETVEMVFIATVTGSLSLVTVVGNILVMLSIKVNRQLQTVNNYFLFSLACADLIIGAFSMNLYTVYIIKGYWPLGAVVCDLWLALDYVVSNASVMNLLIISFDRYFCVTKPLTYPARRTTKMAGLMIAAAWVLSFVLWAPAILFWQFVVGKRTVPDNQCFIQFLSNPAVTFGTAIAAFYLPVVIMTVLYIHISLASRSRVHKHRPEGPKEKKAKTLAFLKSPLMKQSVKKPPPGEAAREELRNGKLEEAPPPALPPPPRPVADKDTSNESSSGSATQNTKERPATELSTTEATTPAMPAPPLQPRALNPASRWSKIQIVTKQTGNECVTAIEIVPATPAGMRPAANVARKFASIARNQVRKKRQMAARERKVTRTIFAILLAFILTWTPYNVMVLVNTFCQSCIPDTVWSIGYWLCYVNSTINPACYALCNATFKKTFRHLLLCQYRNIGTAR
In short: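 Competition binding used CHO-cell membranes expressing human M4 with 1.5 nM [3H]N-methylscopolamine and twelve compound concentrations ([…]). Incubation was 90 minutes at 37 °C in 50 mM HEPES, 100 mM NaCl, 5 mM MgCl2, 1 mM EDTA, pH 7.4. Bound ligand was collected by filtration onto PEI-treated glass fibre for Ki.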

| Compound | Ki [nM] |
| --- | --- |
| C[C@@H]1CN(c2cnc(C(F)(F)F)cn2)C[C@@H](C)N1C(=O)OC1CC2(C1)CN(Cc1ccc(F)cc1)C2 [Compound 398, 2-[(4-fluorophenyl)methyl]-2-azaspiro[3.3]heptan-6-yl (2R,6R)-2,6-dimethyl-4-[5-(trifluoromethyl)pyrazin-2-yl]piperazine-1-carboxylate] | 10 to 100 |
| C[C@@H]1CN(c2cnc(C(F)(F)F)cn2)C[C@H](C)N1C(=O)OC1CC2(C1)CN(Cc1ccc(Cl)cc1)C2 [Compound 479, 2-[(4-chlorophenyl)methyl]-2-azaspiro[3.3]heptan-6-yl (2R,6S)-2,6-dimethyl-4-[5-(trifluoromethyl)pyrazin-2-yl]piperazine-1-carboxylate] | 10 to 100 |
| C[C@@H]1CN(c2nc3cc(C(F)(F)F)cnc3s2)C[C@H](C)N1C(=O)OC1CC2(C1)CN(Cc1ccccc1)C2 [Compound 365, 2-benzyl-2-azaspiro[3.3]heptan-6-yl (2R,6S)-2,6-dimethyl-4-[6-(trifluoromethyl)-[1,3]thiazolo[5,4-b]pyridin-2-yl]piperazine-1-carboxylate] | < 10 |
| C[C@@H]1CN(c2ncc(C(F)(F)F)cn2)C[C@@H](C)N1C(=O)NC1CC2(C1)CN(Cc1ccc(Cl)cc1)C2 [Compound 255, (2R,6R)-N-{2-[(4-chlorophenyl)methyl]-2-azaspiro[3.3]heptan-6-yl}-2,6-dimethyl-4-[5-(trifluoromethyl)pyrimidin-2-yl]piperazine-1-carboxamide] | 10 to 100 |
| C[C@@H]1CN(c2ncc(C(F)(F)F)cn2)[C@@H](C)CN1C(=O)OC1(C)CC2(CN(Cc3ccccc3)C2)C1 [Compound 358, 2-benzyl-6-methyl-2-azaspiro[3.3]heptan-6-yl (2R,5S)-2,5-dimethyl-4-[5-(trifluoromethyl)pyrimidin-2-yl]piperazine-1-carboxylate] | < 10 |
| C[C@@H]1CN(c2ncc(C#N)cn2)CCN1C(=O)OC1CC2(C1)CN(Cc1ccc(Cl)cc1)C2 [Compound 483, 2-[(4-chlorophenyl)methyl]-2-azaspiro[3.3]heptan-6-yl (2R)-4-(5-cyanopyrimidin-2-yl)-2-methylpiperazine-1-carboxylate] | 100 to 1000 |
| C[C@@H]1CN(c2cnc(C(F)(F)F)cn2)C[C@H](C)N1C(=O)OC1(C(F)F)CC2(CN(Cc3ccccc3)C2)C1 [Compound 342, 2-benzyl-6-(difluoromethyl)-2-azaspiro[3.3]heptan-6-yl (2R,6S)-2,6-dimethyl-4-[5-(trifluoromethyl)pyrazin-2-yl]piperazine-1-carboxylate] | 100 to 1000 |
| C[C@@H]1CN(c2ncc(C(F)(F)F)cn2)[C@@H](C)CN1C(=O)NC1CC2(C1)CN(Cc1ccc(F)cc1)C2 [Compound 265, (2R,5S)-N-{2-[(4-fluorophenyl)methyl]-2-azaspiro[3.3]heptan-6-yl}-2,5-dimethyl-4-[5-(trifluoromethyl)pyrimidin-2-yl]piperazine-1-carboxamide] | 10 to 100 |
| C[C@@H]1CN(c2ncc(C(F)(F)F)cn2)CCN1C(=O)NC1CC2(C1)CN(Cc1ccc(Cl)cc1)C2 [Compound 257, (2R)-N-{2-[(4-chlorophenyl)methyl]-2-azaspiro[3.3]heptan-6-yl}-2-methyl-4-[5-(trifluoromethyl)pyrimidin-2-yl]piperazine-1-carboxamide] | 100 to 1000 |
| C[C@@H]1CN(c2ncc(C(F)(F)F)cn2)CCN1C(=O)NC1CC2(C1)CN(Cc1ccccc1)C2 [Compound 7, (2R)-N-{2-benzyl-2-azaspiro[3.3]heptan-6-yl}-2-methyl-4-[5-(trifluoromethyl)pyrimidin-2-yl]piperazine-1-carboxamide] | 10 to 100 |
| C[C@@H]1CN(c2ncc3ccccc3n2)[C@@H](C)CN1C(=O)NC1CC2(C1)CN(Cc1ccccc1)C2 [Compound 212, (2R,5S)-N-{2-benzyl-2-azaspiro[3.3]heptan-6-yl}-2,5-dimethyl-4-(quinazolin-2-yl)piperazine-1-carboxamide] | < 10 |
| COc1ccc2nc(N3C[C@@H](C)N(C(=O)NC4CC5(C4)CN(Cc4ccccc4)C5)C[C@@H]3C)cnc2c1 [Compound 222, (2R,5S)-N-{2-benzyl-2-azaspiro[3.3]heptan-6-yl}-4-(6-methoxyquinoxalin-2-yl)-2,5-dimethylpiperazine-1-carboxamide] | < 10 |
| C[C@@H]1CN(c2nc3ncc(C(F)(F)F)cc3s2)[C@@H](C)CN1C(=O)OC1CC2(C1)CN(Cc1ccccc1)C2 [Compound 433, 2-benzyl-2-azaspiro[3.3]heptan-6-yl (2R,5S)-2,5-dimethyl-4-[6-(trifluoromethyl)-[1,3]thiazolo[4,5-b]pyridin-2-yl]piperazine-1-carboxylate] | 10 to 100 |
| C[C@@H]1CN(c2cnc3cc(C(F)(F)F)ccc3n2)C[C@H](C)N1C(=O)OC1CC2(C1)CN(Cc1ccccc1)C2 [Compound 378, 2-benzyl-2-azaspiro[3.3]heptan-6-yl (2R,6S)-2,6-dimethyl-4-[6-(trifluoromethyl)quinoxalin-2-yl]piperazine-1-carboxylate] | < 10 |
| C[C@@H]1CN(c2ncc(C#N)cn2)C[C@H](C)N1C(=O)OC1CC2(C1)CN(Cc1ccc(F)cc1)C2 [Compound 472, 2-[(4-fluorophenyl)methyl]-2-azaspiro[3.3]heptan-6-yl (2R,6S)-4-(5-cyanopyrimidin-2-yl)-2,6-dimethylpiperazine-1-carboxylate] | 10 to 100 |
| C[C@@H]1CN(c2cnc(C(F)(F)F)cn2)[C@@H](C)CN1C(=O)OC1CC2(C1)CN(Cc1ccc(F)cc1)C2 [Compound 400, 2-[(4-fluorophenyl)methyl]-2-azaspiro[3.3]heptan-6-yl (2R,5S)-2,5-dimethyl-4-[5-(trifluoromethyl)pyrazin-2-yl]piperazine-1-carboxylate] | 10 to 100 |
| O=C(OC1CC2(C1)CN(Cc1ccccc1)C2)N1C2COCC1CN(c1nc3ccc(C(F)(F)F)cc3s1)C2 [Compound 437, 2-benzyl-2-azaspiro[3.3]heptan-6-yl 7-[6-(trifluoromethyl)-1,3-benzothiazol-2-yl]-3-oxa-7,9-diazabicyclo[3.3.1]nonane-9-carboxylate] | 10 to 100 |
| C[C@@H]1CN(c2ncc(C(F)(F)F)cn2)CCN1C(=O)OCC1CC2(C1)CN(Cc1ccccc1)C2 [Compound 133, {2-benzyl-2-azaspiro[3.3]heptan-6-yl}methyl (2R)-2-methyl-4-[5-(trifluoromethyl)pyrimidin-2-yl]piperazine-1-carboxylate] | 10 to 100 |
| C[C@@H]1CN(c2nc3ccc(C(F)(F)F)cc3o2)C[C@@H](C)N1C(=O)OC1CC2(C1)CN(Cc1ccccc1)C2 [Compound 429, 2-benzyl-2-azaspiro[3.3]heptan-6-yl (2R,6R)-2,6-dimethyl-4-[6-(trifluoromethyl)-1,3-benzoxazol-2-yl]piperazine-1-carboxylate] | 10 to 100 |
| C[C@@H]1CN(c2nc3cc(F)ccc3s2)C[C@@H](C)N1C(=O)OC1CC2(C1)CN(Cc1ccccc1)C2 [Compound 439, 2-benzyl-2-azaspiro[3.3]heptan-6-yl (2R,6R)-4-(5-fluoro-1,3-benzothiazol-2-yl)-2,6-dimethylpiperazine-1-carboxylate] | 10 to 100 |
| C[C@@H]1CN(c2cnc3ccccc3n2)C[C@H](C)N1C(=O)NC1CC2(C1)CN(Cc1ccccc1)C2 [Compound 214, (2R,6S)-N-{2-benzyl-2-azaspiro[3.3]heptan-6-yl}-2,6-dimethyl-4-(quinoxalin-2-yl)piperazine-1-carboxamide] | 10 to 100 |
